Test results from ChEMBL document CHEMBL1201862, “PubChem BioAssay data set” (2004).
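Test compounds were applied to cells in 96-well plates for 48 hours at 5 doses. GI50 is the concentration that inhibits growth by half.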 Activity calls are given as the source filed them. No stated cut-off is given here; in the data, active = GI50 up to about 1.1 µM and inactive = higher.

What was measured:
Assay in all cases: DTP human tumour cell line panel, 48 h
[1] = test system: A498
[2] = test system: ACHN
[3] = test system: BT-549
[4] = test system: DU-145
[5] = test system: HL-60
[6] = test system: HOP-92
[7] = test system: HT-29
[8] = test system: Hs-578T
[9] = test system: IGROV-1
[10] = test system: M14
[11] = test system: MDA-MB-231
[12] = test system: MDA-MB-435
[13] = test system: NCI-H23
[14] = test system: OVCAR-8
[15] = test system: SF-539
[16] = test system: SK-OV-3
[17] = test system: SN12C
[18] = test system: SNB-75
[19] = test system: TK-10
[20] = test system: UACC-257

For `CC(O)CC(=O)CO[C@H]1[C@H](O)[C@@H](O)[C@@H](O)[C@@H]2NC(=O)c3c(cc4c(c3O)OCO4)[C@H]21` (stereo not given in full), the GI50 [1] was 0.0218 µM (active), the GI50 [2] was 0.0391 µM (active) and the GI50 [3] was 0.0509 µM (active). For the same compound, the GI50 [4] was 0.0214 µM (active), the GI50 [5] was 0.0386 µM (active) and the GI50 [6] was 0.0377 µM (active). For the same compound, the GI50 [7] was 0.0258 µM (active), the GI50 [8] was 0.0398 µM (active) and the GI50 [9] was < 0.0207 µM (active). For the same compound, the GI50 [10] was 0.0361 µM (active), the GI50 [11] was 0.054 µM (active) and the GI50 [12] was 0.0386 µM (active). For the same compound, the GI50 [13] was 0.0335 µM (active), the GI50 [14] was 0.0332 µM (active) and the GI50 [15] was 0.0214 µM (active). For the same compound, the GI50 [16] was 0.0617 µM (active), the GI50 [17] was 0.0266 µM (active) and the GI50 [18] was 0.0472 µM (active). The GI50 [19] was 0.0353 µM (active) and the GI50 [20] was 0.0397 µM (active).
For `CN(C)CCC(=O)[C@@]1(O)CC[C@H]2[C@@H]3CC=C4C[C@@H](O)CC[C@]4(C)[C@H]3CC[C@@]21C`, the GI50 [1] was 16.1 µM (inactive), the GI50 [2] was 16.1 µM (inactive) and the GI50 [3] was 17.9 µM (inactive). For the same compound, the GI50 [4] was 6.65 µM (inactive), the GI50 [5] was 17.4 µM (inactive) and the GI50 [6] was 20.9 µM (inactive). The GI50 [7] was 18.9 µM (inactive), the GI50 [8] was 20.7 µM (inactive) and the GI50 [9] was 17.8 µM (inactive). The GI50 [10] was 18.2 µM (inactive), the GI50 [11] was 18.5 µM (inactive) and the GI50 [12] was 18.2 µM (inactive). The GI50 [13] was 23.6 µM (inactive), the GI50 [14] was 20.2 µM (inactive) and the GI50 [15] was 2.6 µM (inactive). The GI50 [16] was 29.8 µM (inactive), the GI50 [17] was 16.9 µM (inactive) and the GI50 [18] was 15.2 µM (inactive). For the same compound, the GI50 [19] was 2.1 µM (inactive) and the GI50 [20] was 13.3 µM (inactive).
`Cc1ncc([N+](=O)[O-])n1CCNCCCCn1ccnc1[N+](=O)[O-]` was tested, and the GI50 [1] was > 100 µM (inactive), the GI50 [2] was > 100 µM (inactive) and the GI50 [3] was 45.5 µM (inactive). For the same compound, the GI50 [4] was > 100 µM (inactive), the GI50 [5] was > 100 µM (inactive) and the GI50 [6] was > 100 µM (inactive). The GI50 [7] was > 100 µM (inactive), the GI50 [8] was > 100 µM (inactive) and the GI50 [9] was > 100 µM (inactive). The GI50 [10] was > 100 µM (inactive), the GI50 [11] was > 100 µM (inactive) and the GI50 [12] was > 100 µM (inactive). For the same compound, the GI50 [13] was > 100 µM (inactive), the GI50 [14] was > 100 µM (inactive) and the GI50 [15] was > 100 µM (inactive). For the same compound, the GI50 [16] was > 100 µM (inactive), the GI50 [17] was > 100 µM (inactive) and the GI50 [18] was > 100 µM (inactive). For the same compound, the GI50 [19] was > 100 µM (inactive) and the GI50 [20] was > 100 µM (inactive).
With `CC(=O)c1cc2c(s1)C(=O)c1ccccc1C2=O` the GI50 [1] was 29.3 µM (inactive), the GI50 [2] was 1.36 µM (inactive) and the GI50 [3] was 1.62 µM (inactive). For the same compound, the GI50 [4] was 1.26 µM (inactive), the GI50 [5] was 2.13 µM (inactive) and the GI50 [6] was 4.18 µM (inactive). For the same compound, the GI50 [7] was 3.4 µM (inactive), the GI50 [8] was 2.84 µM (inactive) and the GI50 [9] was 2.01 µM (inactive). The GI50 [10] was 0.557 µM (active), the GI50 [11] was 3.13 µM (inactive) and the GI50 [12] was 0.791 µM (active). For the same compound, the GI50 [13] was 0.457 µM (active), the GI50 [14] was 1.74 µM (inactive) and the GI50 [15] was 1.44 µM (inactive). The GI50 [16] was 15.3 µM (inactive), the GI50 [17] was 2.59 µM (inactive) and the GI50 [18] was 2.4 µM (inactive). The GI50 [19] was 5.47 µM (inactive) and the GI50 [20] was 1.57 µM (inactive).
For `CC(Oc1ccccc1Cl)C(=O)NN1C(=O)CC(=O)NC1=S` (stereo not given), the GI50 [1] was > 100 µM (inactive), the GI50 [2] was 63.7 µM (inactive) and the GI50 [3] was > 100 µM (inactive). For the same compound, the GI50 [4] was > 100 µM (inactive), the GI50 [5] was 9.23 µM (inactive) and the GI50 [6] was > 100 µM (inactive). The GI50 [7] was > 100 µM (inactive), the GI50 [8] was > 100 µM (inactive) and the GI50 [9] was > 100 µM (inactive). For the same compound, the GI50 [10] was > 100 µM (inactive), the GI50 [11] was > 100 µM (inactive) and the GI50 [12] was > 100 µM (inactive). The GI50 [13] was > 100 µM (inactive), the GI50 [14] was > 100 µM (inactive) and the GI50 [15] was > 100 µM (inactive). The GI50 [16] was > 100 µM (inactive), the GI50 [17] was > 100 µM (inactive) and the GI50 [18] was > 100 µM (inactive). For the same compound, the GI50 [19] was > 100 µM (inactive) and the GI50 [20] was > 100 µM (inactive).
With `O=C(O)c1nn(-c2ccc(Cl)cc2)c2c1C(=O)c1ccccc1C2=O` the GI50 [1] was > 100 µM (inactive), the GI50 [2] was > 100 µM (inactive) and the GI50 [3] was > 100 µM (inactive). For the same compound, the GI50 [4] was > 100 µM (inactive), the GI50 [5] was > 100 µM (inactive) and the GI50 [6] was > 100 µM (inactive). For the same compound, the GI50 [7] was > 100 µM (inactive), the GI50 [8] was > 100 µM (inactive) and the GI50 [9] was > 100 µM (inactive). For the same compound, the GI50 [10] was 20 µM (inactive), the GI50 [11] was 41.3 µM (inactive) and the GI50 [12] was > 100 µM (inactive). For the same compound, the GI50 [13] was 37.5 µM (inactive), the GI50 [14] was > 100 µM (inactive) and the GI50 [15] was 30.2 µM (inactive). The GI50 [16] was > 100 µM (inactive), the GI50 [17] was > 100 µM (inactive) and the GI50 [18] was 22.8 µM (inactive). For the same compound, the GI50 [19] was > 100 µM (inactive) and the GI50 [20] was > 100 µM (inactive).
